pIC50: −log10 of the molar value. “And” between values parts separate entries of the source, which are not always exact repeats. Equal values may be shown once. Read-outs that look alike come from different tables or passages of the source.
Assays:
[1] = test system: pinch skin graft from male DBA/2 donors transplanted to male BALB/c recipients; assay: survival time of pinch skin graft; type: in vivo, mice; conditions: for Skin Graft (days), mean graft survival time: intraperitoneally, ± S.D.
Protocol: Representative compounds of this invention were also evaluated in an in vivo test procedure designed to determine the survival time of pinch skin graft from male DBA/2 donors transplanted to male BALB/c recipients. The method is adapted from Billingham R. E. and Medawar P. B., J. Exp. Biol. 28:385-402, (1951). Briefly, a pinch skin graft from the donor is grafted on the dorsum of the recipient as a homograft, and an autograft is used as control in the same region. The recipients are treated with either varying concentrations of cyclosporin A as test control or the test compounds, intraperitoneally. Untreated recipients serve as rejection control. The graft is monitored daily and observations are recorded until the graft becomes dry and forms a blackened scab. This is considered as the rejection day. The mean graft survival time (number of days±S.D.) of the drug treatment group is compared with the control group.

[2] = test system: lymphocyte proliferation (LAF); cells from the thymus of normal BALB/c mice; assay: comitogen-induced thymocyte proliferation procedure (LAF); type: cell-based; conditions: read-out: LAF IC50
Protocol: The immunosuppressive activities for representative compounds of this invention were evaluated in an in vitro standard pharmacological test procedure to measure lymphocyte proliferation (LAF) and in an in vivo standard pharmacological test procedure which evaluated the survival time of pinch skin grafts. […] Cells are harvested and incorporated radioactivity is determined. Inhibition of lymphoproliferation is assessed as percent change in counts per minute from non-drug treated controls. The results are expressed as an IC50.

[3] = stability in 0.1M phosphate buffer via HPLC; type: physicochemical
Protocol: In addition, the stability of representative compounds was tested, via HPLC, in 0.1M phosphate buffer (pH 7.4, 37° C.).

[4] = test system: systemic lupus erythematosus; conditions: cited from earlier work
Candida albicans = conditions: particularly against Candida albicans, both in vitro and in vivo; cited from earlier work
[5] = test system: adjuvant arthritis model, a model for rheumatoid arthritis; conditions: cited from earlier work
[6] = test system: formation of IgE-like antibodies; conditions: cited from earlier work
[7] = alone or in combination with picibanil; cited from earlier work
[8] = test system: insulin dependent diabetes mellitus; conditions: cited from earlier work
[9] = test system: experimental allergic encephalomyelitis model, a model for multiple sclerosis; conditions: cited from earlier work
[10] = test system: smooth muscle cell proliferation and intimal thickening following vascular injury; conditions: cited from earlier work
[11] = BALB/c mouse thymocytes, PHA and IL-1, 72 hours
[12] = 0.1m phosphate buffer, pH 7.4 buffer, 0.1M phosphate, 37° C., read-out: Stability (converted)

For `CO[C@H]1C[C@@H]2CC[C@@H](C)[C@@](O)(O2)C(=O)C(=O)N2CCCCC2(C)C(=O)O[C@H]([C@H](C)C[C@@H]2CC[C@@H](O)[C@H](OC)C2)CC(=O)[C@H](C)/C=C(\C)[C@@H](O)[C@@H](OC)C(=O)[C@H](C)C[C@H](C)/C=C/C=C/C=C/1C` (stereo partly shown) [22-methyl-rapamycin, C-22-methyl-rapamycin], the “Skin Graft (days), mean graft survival time” value (“Skin Graft (days)” below) ([1]; 4 mg/kg) was 9.33 ± 0.52 days and 9.00 ± 0.63 days, the “Skin Graft (days)” value ([1]; *tested at 16 mg/kg) was 10.17 ± 0.55 days and the “graft survival time (in words)” value ([1]; relative to grafts without immunosuppressive agent (rejected within 6-7 days)) was “increased survival time”. For the same molecule, the pIC50 [2, 11] was 7.63 and the half-life ([3]; 0.1M phosphate buffer, pH 7.4, 37° C., read-out: half life in stability test (converted)) was 2280 min.

`CO[C@H]1C[C@@H]2CC[C@@H](C)[C@@](O)(O2)C(=O)C(=O)N2CCCCC2(C)C(=O)O[C@H]([C@H](C)C[C@@H]2CC[C@@H](O)[C@H](OC)C2)CC(O)[C@H](C)/C=C(\C)[C@@H](O)[C@@H](OC)C(=O)[C@H](C)C[C@H](C)/C=C/C=C/C=C/1C` (stereo partly shown) [22-methyl-27-hydroxyrapamycin, C-22-methyl-C-27-hydroxy-rapamycin] gave a pIC50 [2, 11] of 8.00 and a half-life ([3]; 0.1m phosphate buffer, pH 7.4) of 1310 min.

Molecule `CCC12CCCCN1C(=O)C(=O)[C@]1(O)O[C@@H](CC[C@H]1C)C[C@H](OC)/C(C)=C/C=C/C=C/[C@@H](C)C[C@@H](C)C(=O)[C@H](OC)[C@H](O)/C(C)=C/[C@@H](C)C(=O)C[C@@H]([C@H](C)C[C@@H]1CC[C@@H](O)[C@H](OC)C1)OC2=O` (stereo partly shown) [22-ethyl-rapamycin, C-22-ethyl-rapamycin] has a pIC50 [2, 11] of 6.85.

In the case of `CO[C@H]1C[C@@H]2CC[C@@H](C)[C@@](O)(O2)C(=O)C(=O)N2CCCC[C@H]2C(=O)O[C@H]([C@H](C)C[C@@H]2CC[C@@H](O)[C@H](OC)C2)CC(=O)[C@H](C)/C=C(\C)[C@@H](O)[C@@H](OC)C(=O)[C@H](C)C[C@H](C)/C=C/C=C/C=C/1C` [rapamycin], the “Skin Graft (days)” value ([1]; 4 mg/kg) is given as 12.01 ± 0.26 days, the “effect in systemic lupus erythematosus” value [4] is given as “useful in preventing or treating” and the antifungal activity (Candida albicans) is given as “antifungal activity, particularly against Candida albicans, both in vitro and in vivo”. For the same molecule, the pIC50 ([2]; Mus musculus, 72 h) was 8.03 to 9.40, the “effect in adjuvant arthritis model” value [5] was “effective” and the “half life in stability test” value ([3]; 0.1M phosphate buffer, pH 7.4, 37° C.) was 12 to 13 h. For the same molecule, the half-life [3, 12] was 720 to 780 min, the “inhibition of formation of IgE-like antibodies” value [6] was “effectively inhibited” and the antitumor activity [7] was “antitumor activity”. For the same molecule, the “effect in insulin dependent diabetes mellitus” value [8] was “useful in preventing or treating”, the “effect in experimental allergic encephalomyelitis model” value [9] was “effective” and the “effect on smooth muscle cell proliferation and intimal thickening” value [10] was “useful in preventing or treating”.

In the case of `COC1CC2CCC(C)C(O)(O2)C(=O)C(=O)N2CCCCC2(C)C(=O)OC(C(C)CC2CCC(OC(=O)CN(C)C)C(OC)C2)CC(=O)C(C)C=C(C)C(O)C(OC)C(=O)C(C)CC(C)C=CC=CC=C1C` (stereo not shown) [C-22-methyl-42-dimethylglycine-rapamycin, C-22-methyl-42-dimethylglycine rapamycin], the pIC50 [2, 11] was 7.70 and the half-life [3, 12] was 810 min.

From patent US5387680A, “C-22 ring stabilized rapamycin derivatives” (American Home Products Corporation, priority 1993, dated 1995)
